Where a name gives a salt, the structure may show the parent alone.

The target in the experiment is T1, BCL6 (Homo sapiens, UniProt P41182).
T1 construct: Endogenous BCL6 was tagged with the 11-amino acid SmBiT through CRISPR/Cas9 gene editing; endogenous in cells; host or cells: Su-DHL-4 (CRISPR/Cas9 knock-in, single cell clone)
As to the kind of experiment: HiBiT cellular degradation assay in Su-DHL-4 cells. Conditions: concentration to reach 50% degradation of endogenous SmBiT-tagged BCL6, 24 hours of compound treatment. In kind it is cell-based. Here is the method:
DC50 (concentration to reach 50% degradation) values were determined from a cellular degradation assay (HiBiT, Promega™) in Su-DHL-4 cells (Table 1). Endogenous BCL6 was tagged with the 11-amino acid SmBiT through CRISPR/Cas9 gene editing and single cell clone selection. After 24 hours of compound treatment, cells were lysed and incubated with LgBiT protein to reconstitute intact nanoluciferase. Substrate was then added and relative luciferase units were measured. Degradation levels for each treatment were taken as a percentage compared to the control, 100% DMSO (Prism).
By DC50 is commonly meant the midpoint of the concentration-degradation curve. As for `CNC(=O)COc1cc2cc(Nc3nc(N4CC(C)CC(O)C4)c(C#N)cc3Cl)ccc2n(CCN(C)C)c1=O` (stereo not drawn) [Compound 76, 2-((6-((3-Chloro-5-cyano-6-(3-hydroxy-5-methylpiperidin-1-yl)pyridin-2-yl)amino)-1-(2-(dimethylamino)ethyl)-2-oxo-1,2-dihydroquinolin-3-yl)oxy)-N-methylacetamide], it took 4 nM to reach half-maximal degradation (DC50).

`C[C@@H]1CN(c2nc(Nc3ccc4c(c3)n(CCC3(O)CC3)c(=O)n4C)c(Cl)cc2C#N)C[C@H](N)C1(F)F` [Compound 59, 2-((3S,5R)-3-Amino-4,4-difluoro-5-methylpiperidin-1-yl)-5-chloro-6-((3-(2-(1-hydroxycyclopropyl)ethyl)-1-methyl-2-oxo-2,3-dihydro-1H-benzo[d]imidazol-5-yl)amino)nicotinonitrile] had a DC50 of 48 nM.

The molecule `C[C@@H]1CN(c2nc(Nc3ccc4c(c3)n(CCC(C)(C)O)c(=O)n4C)c(Cl)cc2C#N)C[C@H](O)[C@@H]1F` [Compound 50, 5-chloro-2-((3S,4R,5R)-4-fluoro-3-hydroxy-5-methylpiperidin-1-yl)-6-((3-(3-hydroxy-3-methylbutyl)-1-methyl-2-oxo-2,3-dihydro-1H-benzo[d]imidazol-5-yl)amino)nicotinonitrile] showed a 50% degradation concentration (DC50) of 28 nM.

`C[C@@H]1C[C@H](N)CN(c2nc(Nc3ccc4c(c3)c3c(c(=O)n4C)OCC(F)(F)[C@H](C4CC4)N3)c(Cl)cc2C#N)C1` [Compound 25, 2-((3S,5R)-3-Amino-5-methylpiperidin-1-yl)-5-chloro-6-(((S)-2-cyclopropyl-3,3-difluoro-7-methyl-6-oxo-1,2,3,4,6,7-hexahydro-[1,4]oxazepino[2,3-c]quinolin-10-yl)amino)nicotinonitrile] showed a DC50 greater than 400 nM.

The molecule `C[C@@H]1CN(c2nc(Nc3ccc4c(c3)n(C[C@H]3CNC(=O)O3)c(=O)n4C)c(F)cc2C#N)C[C@H](C)[C@@H]1F` [Compound 86, 5-Fluoro-2-((3S,4S,5R)-4-fluoro-3,5-dimethylpiperidin-1-yl)-6-((1-methyl-2-oxo-3-(((R)-2-oxooxazolidin-5-yl)methyl)-2,3-dihydro-1H-benzo[d]imidazol-5-yl)amino)nicotinonitrile] showed a DC50 of 83 nM.

Molecule `C[C@@H]1CN(c2nc(Nc3ccc4c(c3)n(CCC(C)(C)O)c(=O)n4C)c(F)cc2C#N)C[C@H](N)C1(F)F` [Compound 80, 2-((3S,5R)-3-Amino-4,4-difluoro-5-methylpiperidin-1-yl)-5-fluoro-6-((3-(3-hydroxy-3-methylbutyl)-1-methyl-2-oxo-2,3-dihydro-1H-benzo[d]imidazol-5-yl)amino)nicotinonitrile hydrochloride] registered a DC50 greater than 400 nM.

For the molecule `C[C@H](O)CCn1c(=O)n(C)c2ccc(Nc3nc(N4C[C@@H](C)[C@@H](F)[C@@H](C)C4)c(C#N)cc3F)cc21` [Compound 54, 5-Fluoro-2-((3S,4R,5R)-4-fluoro-3,5-dimethylpiperidin-1-yl)-6-((3-((S)-3-hydroxybutyl)-1-methyl-2-oxo-2,3-dihydro-1H-benzo[d]imidazol-5-yl)amino)nicotinonitrile], it took 38 nM to reach half-maximal degradation (DC50).

In turn, `CNC(=O)COc1cc2cc(Nc3nc(N4C[C@@H](C)C(F)(F)[C@@H](C)C4)c(C#N)cc3Cl)ccc2n(CCN(C)C)c1=O` [Compound 11, 2-((6-((3-Chloro-5-cyano-6-((3R,5S)-4,4-difluoro-3,5-dimethylpiperidin-1-yl)pyridin-2-yl)amino)-1-(2-(dimethylamino)ethyl)-2-oxo-1,2-dihydroquinolin-3-yl)oxy)-N-methylacetamide] came in with a DC50 of 2 nM.

Turning to `C[C@@H]1CN(c2nc(Nc3ccc4c(c3)n(C[C@H]3CNC(=O)O3)c(=O)n4C)c(F)cc2C#N)C[C@H](N)C1(F)F` [Compound 84, 2-((3S,5R)-3-amino-4,4-difluoro-5-methylpiperidin-1-yl)-5-fluoro-6-((1-methyl-2-oxo-3-(((R)-2-oxooxazolidin-5-yl)methyl)-2,3-dihydro-1H-benzo[d]imidazol-5-yl)amino)nicotinonitrile], the DC50 was greater than 400 nM.

The record behind these values is patent US20250074890A1, “CYANOPYRIDINE AND CYANOPYRIMIDINE BCL6 DEGRADERS” (DANA-FARBER CANCER INSTITUTE, INC., priority 2021, published 2025).
